The structures appear in SMILES notation. pIC50: −log10 of the molar value. “And” between values parts separate entries of the source, which are not always exact repeats. Equal values may be shown once.

In one assay the target is EGFR (UniProt P00533).
Sequence of EGFR (P00533 whole entry, looked up): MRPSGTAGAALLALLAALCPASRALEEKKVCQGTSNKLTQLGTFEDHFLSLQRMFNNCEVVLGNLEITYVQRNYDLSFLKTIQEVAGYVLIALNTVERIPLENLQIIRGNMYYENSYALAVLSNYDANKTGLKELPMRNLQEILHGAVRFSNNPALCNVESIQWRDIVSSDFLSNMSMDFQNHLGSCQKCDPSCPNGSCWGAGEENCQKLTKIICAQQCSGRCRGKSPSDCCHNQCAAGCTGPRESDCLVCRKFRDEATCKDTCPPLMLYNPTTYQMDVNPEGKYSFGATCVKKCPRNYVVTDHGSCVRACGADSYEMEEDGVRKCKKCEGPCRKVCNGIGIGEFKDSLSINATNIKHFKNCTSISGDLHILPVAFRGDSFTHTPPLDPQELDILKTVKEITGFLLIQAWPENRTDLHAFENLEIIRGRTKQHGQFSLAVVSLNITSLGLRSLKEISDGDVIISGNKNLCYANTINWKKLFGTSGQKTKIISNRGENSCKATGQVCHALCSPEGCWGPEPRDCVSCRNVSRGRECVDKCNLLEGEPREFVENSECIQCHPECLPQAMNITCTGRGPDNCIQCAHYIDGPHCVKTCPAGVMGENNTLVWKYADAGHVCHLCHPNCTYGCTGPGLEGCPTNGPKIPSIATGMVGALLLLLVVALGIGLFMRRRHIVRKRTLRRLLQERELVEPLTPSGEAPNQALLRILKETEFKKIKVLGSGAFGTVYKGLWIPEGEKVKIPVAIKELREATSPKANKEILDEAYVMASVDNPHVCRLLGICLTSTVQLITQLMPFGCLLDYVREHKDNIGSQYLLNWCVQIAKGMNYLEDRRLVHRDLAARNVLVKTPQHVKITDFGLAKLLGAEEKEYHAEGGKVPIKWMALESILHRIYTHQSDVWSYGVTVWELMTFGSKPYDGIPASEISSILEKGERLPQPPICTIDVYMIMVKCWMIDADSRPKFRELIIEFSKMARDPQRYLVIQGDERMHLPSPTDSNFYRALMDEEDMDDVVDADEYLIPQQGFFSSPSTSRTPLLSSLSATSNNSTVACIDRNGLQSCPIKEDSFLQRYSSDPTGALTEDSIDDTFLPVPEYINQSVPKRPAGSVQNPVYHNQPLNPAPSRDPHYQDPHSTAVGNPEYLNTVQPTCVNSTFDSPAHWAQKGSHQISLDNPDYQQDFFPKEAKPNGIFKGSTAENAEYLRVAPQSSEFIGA
Conditions: not given
The molecule `Clc1cccc(Nc2ncnc3[nH]c4ccccc4c23)c1` had a pIC50 of 8.22.

In turn, `COc1cc2ncnc(NCc3cccc(Br)c3)c2cc1OC` showed a pIC50 of 8.00.

As for `C=CC(=O)Nc1cccc2c1sc1c(Nc3cccc(Br)c3)ncnc12`, the pIC50 was 8.85. Compared with the last molecule, the pIC50 is 0.85 log units higher.

`COc1cccc(CNc2n[nH]c3ncnc(Nc4cccc(Cl)c4)c23)c1`: the pIC50 is 8.10. Compared with the last molecule, the pIC50 is 0.75 log units lower.

Molecule `Brc1cccc(Nc2ncnc3cc(NCCCN4CCOCC4)ncc23)c1` had a pIC50 of 8.13.

In turn, `CC(=O)Oc1cccc2c1c(C(=O)Nc1ccccc1)c(SSc1c(C(=O)Nc3ccccc3)c3c(OC(C)=O)cccc3n1C)n2C` had a pIC50 of 5.00.

With `COc1cc2ncnc(N[C@@H](C)c3cccc(Br)c3)c2cc1OC`, the pIC50 was 5.42.

`Clc1cccc(Nc2ncnc3[nH]nc(Nc4cccc(Cl)c4)c23)c1`: the negative logarithm of the IC50 (pIC50) is 7.48.

For `Cc1cccc(N(C)c2ncnc3[nH]ncc23)c1`, the pIC50 was below 4.30.

Take `Brc1cccc(Nc2ncnc3cc4cn[nH]c4cc23)c1`: the pIC50 was 9.47.

`C=CC(=O)Nc1ccc2c(c1)sc1c(Nc3cccc(Br)c3)ncnc12` showed a pIC50 of 7.68.

Take `C=CC(=O)Nc1ccc2sc3c(Nc4cccc(Br)c4)ncnc3c2c1`: the pIC50 is 7.64.

In turn, `CN(C)CCCCNc1cc2ncnc(Nc3cccc(Br)c3)c2cn1` gave a pIC50 of 8.72.

For `O=CN/C=C/c1cc(O)ccc1O`, the pIC50 was 6.44. This pIC50 is 2.28 log units lower than that of the molecule before.

As to `Brc1cccc(Nc2ncnc3ccccc23)c1`, the negative logarithm of the IC50 (pIC50) was 7.70 and 7.64.

Molecule `COc1cc2ncnc(N(C)c3cccc(C)c3)c2cc1OC` showed a pIC50 of 4.92.

`CNC(=O)c1c([Se][Se]c2c(C(=O)NC)c3ccccc3n2C)n(C)c2ccccc12`: the pIC50 is 5.21.

In turn, `COc1cc2ncnc(N[C@H](C)c3cccc(Br)c3)c2cc1OC` gave a pIC50 of 8.80.

Molecule `COc1cc2ncnc(NC3CC3c3ccccc3)c2cc1OC` (centres undefined) showed a pIC50 of 8.00.

In the case of `Nc1nc(N)c2c(Nc3cccc(Cl)c3)n[nH]c2n1`, the pIC50 was 6.66.

Consider `COc1cc2ncnc(Nc3cncc4ccccc34)c2cc1OC`, for which the pIC50 was 8.22.

In the case of `Cc1cccc2c(CCC(=O)O)c(SSc3[nH]c4c(C)cccc4c3CCC(=O)O)[nH]c12`, the negative-log IC50 (pIC50) was 5.82.

Molecule `COc1cc2c(NC3CC3c3ccccc3)ncnc2cc1OCCCN(C)C` (centres undefined) had a pIC50 of 8.52.

Turning to `Nc1ccc(-c2n[nH]c3ncnc(Nc4cccc(Cl)c4)c23)cc1`, the pIC50 was 8.70.

As to `Cn1c(SSc2c(C(=O)Nc3ccccc3)c3ccccc3n2C)c(C(=O)Nc2ccccc2)c2ccccc21`, the pIC50 was 4.70. This pIC50 is 4.00 log units lower than that of the molecule before.

`Clc1cccc(Nc2ncnc3ccccc23)c1`: the pIC50 was 7.40 and 7.57.

Take `Brc1cccc(Nc2ncnc3cc4[nH]ncc4cc23)c1`: the pIC50 was 9.36.

Molecule `COC(=O)Cc1c(SSc2[nH]c3ccccc3c2CC(=O)OC)[nH]c2ccccc12` had a pIC50 of 4.74. This pIC50 lies 4.62 log units lower than the previous one.

Molecule `Brc1cccc(Nc2ncnc3cc4[nH]ccc4cc23)c1` showed a pIC50 of 9.36.

`CNc1cc2ncnc(Nc3cccc(Br)c3)c2cn1` showed a pIC50 of 10.04.

The molecule `COc1cc2ncnc(Nc3ccc(F)c(Br)c3)c2cc1OCCCN1CCOCC1` had a pIC50 of 7.70.

Turning to `O=C1NC(=O)c2cc(NC3CCCCC3)c(NC3CCCCC3)cc21`, the pIC50 was below 3.00.

The target in another assay is EGFR (UniProt P00533). The settings on record: various cell lines.
As for `COc1cc2nccc(Oc3cccc(Br)c3)c2cc1OC`, the pIC50 is 5.60.

Turning to `CNc1ncc2ncnc(Nc3cccc(Br)c3)c2n1`, the pIC50 was 7.52.

For the molecule `C=CC(=O)Nc1cccc2c1sc1c(Nc3cccc(Br)c3)ncnc12`, the pIC50 is 7.62.

Turning to `CCN(CC)CC(O)CNc1cc2c(Nc3cccc(Br)c3)ncnc2cn1` (centres undefined), the pIC50 is 7.55.

Molecule `CNc1cc2c(Nc3cccc(Br)c3)ncnc2cn1` showed a negative-log IC50 (pIC50) of 7.89.

As to `Brc1cccc(Nc2ncnc3cc(NCCCN4CCOCC4)ncc23)c1`, the pIC50 is 7.42.

As for `C/C(O)=C(/C#N)C(=O)Nc1ccc(C(F)(F)F)cc1`, the pIC50 was 4.46.

For the molecule `COc1cc2cc(-c3ccccc3)c(Cl)nc2cc1OC`, the pIC50 was below 7.52.

Turning to `CN(C)CCCCNc1cc2ncnc(Nc3cccc(Br)c3)c2cn1`, the pIC50 is 8.09.

In turn, `Brc1cccc(Nc2ncnc3cnc(NCCN4CCOCC4)cc23)c1` gave a pIC50 of 8.10.

For the molecule `COc1cc2ncnc(Oc3cccc(Br)c3)c2cc1OC`, the pIC50 is 7.15.

Consider `CN(C)CCNc1cc2c(Nc3cccc(Br)c3)ncnc2cn1`, for which the pIC50 was 7.32.

On to `Brc1cccc(Nc2ncnc3cc4c(ccn4CCN4CCOCC4)cc23)c1`, for which the pIC50 was 7.80.

The molecule `Brc1cccc(Nc2ncnc3cc4[nH]cc(CN5CCOCC5)c4cc23)c1` gave a pIC50 of 8.02.

In turn, `CN(C)Cc1c[nH]c2cc3ncnc(Nc4cccc(Br)c4)c3cc12` had a pIC50 of 8.01.

On to `Brc1cccc(Nc2ncnc3cc4[nH]ccc4cc23)c1`, for which the pIC50 was 7.70.

Regarding `Brc1cccc(Nc2ncnc3cnc(NCCc4c[nH]cn4)nc23)c1`, the pIC50 was 8.29. This pIC50 is 0.59 log units higher than that of the molecule before.

For orientation: pIC50 means −log10 of the IC50, conventionally taken in molar units. The low end stands for a high IC50, the high end for a low IC50.

Source of the values: the Kinase Knowledgebase extract (Sharma et al. 2016).
